In paper PMC6213309, “Antibacterial Activity and Mechanism of Action of Bovine Lactoferricin Derivatives with Symmetrical Amino Acid Sequences” (International Journal of Molecular Sciences, 2018):
Read-outs that look alike come from different tables or passages of the source. Ends that are not written are not given here.

Tests used:
HEK293 cells = experiment: Cytotoxicity, MTT assay; format: cell-based, human; settings: 20–24 h
Method: The cytotoxicity of each peptide was determined in HEK293 cells using the thiazolylblue (MTT) assay as described by Zhu. Briefly, HEK293 cells were subcultured overnight in 96-well plates with 10% fetal calf serum and […] at 37 °C in 5% CO2. The cell suspension was then prepared. Two-fold serial dilutions of the peptides were prepared using DMEM. Cell suspensions were added to the plates and incubated for 20–24 h at 37 °C in a cell incubator. Next, 40 μL MTT solution was added to every well, and the plates were incubated for 4 h at 37 °C. Finally, 150 μL DMSO was added to each well, the plates were shaken for 10 min, and the absorbance was measured at 492 nm using a microplate reader.

E. coli UB 1005 = format: cell-based; settings: UB 1005, 18 h
Method: (§2) The antimicrobial activity of the peptides were defined as the minimum inhibitory concentrations (MIC) according to the Clinical and Laboratory Standards Institute broth microdilution method as described previously [47]. Briefly, 50 μL two-fold serial dilutions of peptides (with final concentrations ranging from 0 μM to 256 μM) and 50 μL bacterial fluids diluted with MHB were added to 96-well microtiter plates. The plates were then incubated at 37 °C for 18 h.

[1] = tested on: Salmonella pullorum C 7913; format: cell-based; settings: 18 h
E. coli ATCC25922 [2] = settings: for MIC in the presence of Ca2+ / MIC in the presence of Fe3+ / MIC in the presence of K+ / MIC in the presence of Mg2+ / MIC in the presence of NH4+ / MIC in the presence of Na+ / MIC in the presence of Zn2+ / MIC, Control (enzymatic stability) / MIC, Control (salt stability) / MIC, Control (thermal stability): ATCC25922, 18 h; for MIC after Trypsin: peptide treated with 1 mg/mL trypsin
Method: (§1) The antimicrobial activity of the peptides were defined as the minimum inhibitory concentrations (MIC) according to the Clinical and Laboratory Standards Institute broth microdilution method as described previously. Briefly, 50 μL two-fold serial dilutions of peptides (with final concentrations ranging from 0 μM to 256 μM) and 50 μL bacterial fluids diluted with MHB were added to 96-well microtiter plates. The plates were then incubated at 37 °C for 18 h.
We assessed the salt stability, thermal stability, and enzymatic stability of the AMPs. Briefly, E. coli ATCC25922 was selected as the test bacterium. The control group was untreated peptides. Different concentrations of salts (150 mM NaCl, 4.5 mM KCl, 6 μM NH4Cl, 1 mM MgCl2, […], 8 mM […], 2.5 mM CaCl2, and 4 mM FeCl3) were added to the incubation buffer to examine the effect of each salt on the antimicrobial activities of the peptides. AMPs were treated for 1 h at 100 °C to test the thermal stability. AMPs were also treated with trypsin, pepsin, papain, and protease K at a concentration of 1 mg/mL for 1 h at 37 °C to test enzyme stability.

S. aureus ATCC 25923 = format: cell-based; settings: ATCC 25923, 18 h
[3] = tested on: Salmonella typhimurium ATCC 14028; format: cell-based; settings: ATCC 14028, 18 h
Method: as §2

[4] = tested on: Salmonella enterica subsp. CMCC 50071; settings: MHB, 37 °C, 18 h, peptides 0-256 μM, triplicate samples
Method: as §1

[5] = tested on: Salmonella typhimurium C 7731; format: cell-based; settings: murium C 7731, 18 h
Method: as §2

E. coli ATCC 25922 = format: cell-based; settings: ATCC25922, 18 h
Method: as §2

[6] = tested on: S. epidermidis ATCC 12228; format: cell-based; settings: ATCC 12228, 18 h
Method: as §2

S. aureus ATCC 29213 = format: cell-based
[7] = tested on: all microbial strains in this table; experiment: Geometric mean of MICs and therapeutic index; format: cell-based; settings: nine strains of Table 2
E. coli ATCC25922 [8] = experiment: Flow cytometry, PI staining of membrane damage; format: cell-based; settings: 30 min, 37 °C
Method: Flow cytometry can quantify the amount of cells with membrane damage as reported previously. Briefly, E. coli ATCC 25922 grown to the logarithmic phase were centrifuged and re-suspended to an OD600 nm of 0.2 in PBS (pH 7.4). The suspensions were mixed with each peptide at 1/2× MIC or 1× MIC and incubated for 30 min at 37 °C with constant shaking (140 rpm). The cells were then harvested by centrifugation, washed three times with PBS, and incubated with Propidium Iodide (PI) at a final concentration of […] for 30 min at 4 °C. Finally, the unbound dye was removed by washing with an excess amount of PBS. The data were recorded using fluorescence-activated cell sorting (Becton Dickinson, Franklin Lakes NJ, USA).

CC[C@H](C)[C@H](NC(=O)CN)C(=O)NCC(=O)N[C@@H](C)C(=O)N[C@H](C(=O)N[C@@H](CC(C)C)C(=O)N[C@@H](CCCCN)C(=O)N[C@H](C(=O)N[C@@H](CC(C)C)C(=O)N[C@H](C(=O)N[C@H](C(=O)NCC(=O)N[C@@H](CC(C)C)C(=O)N1CCC[C@H]1C(=O)N[C@@H](C)C(=O)N[C@@H](CC(C)C)C(=O)N[C@H](C(=O)N[C@@H](CO)C(=O)N[C@@H](Cc1c[nH]c2ccccc12)C(=O)N[C@H](C(=O)N[C@@H](CCCCN)C(=O)N[C@@H](CCCNC(=N)N)C(=O)N[C@@H](CCCCN)C(=O)N[C@@H](CCCNC(=N)N)C(=O)N[C@@H](CCC(N)=O)C(=O)N[C@@H](CCC(N)=O)C(N)=O)[C@@H](C)CC)[C@@H](C)CC)[C@@H](C)O)[C@@H](C)O)C(C)C)C(C)C [melittin]
cell viability (HEK293 cells; 4 μM): 41.95%
cell viability (HEK293 cells; 8 μM): 23.40%
cell viability (HEK293 cells; 16 μM): 0%

FPRRWQWRRPF-NH2 [FP-PF]
MIC (E. coli UB 1005): 8 µM
MIC [1]: 16 µM
MIC after Papain (E. coli ATCC25922 [2]; ATCC25922, 1 h): 8 µM
MIC after Pepsin (E. coli ATCC25922 [2]; ATCC25922, 1 h): 16 µM
MIC after Protease K (E. coli ATCC25922 [2]; ATCC25922, 1 h): 4 µM
MIC following heating at 100 °C (E. coli ATCC25922 [2]; ATCC25922, 1 h): 8 µM
MIC in the presence of Ca2+ (E. coli ATCC25922 [2]): 8 µM
MIC in the presence of Fe3+ (E. coli ATCC25922 [2]): 4 µM
MIC in the presence of K+ (E. coli ATCC25922 [2]): 8 µM
MIC in the presence of Mg2+ (E. coli ATCC25922 [2]): 8 µM
MIC in the presence of NH4+ (E. coli ATCC25922 [2]): 8 µM
MIC in the presence of Na+ (E. coli ATCC25922 [2]): 64 µM
MIC in the presence of Zn2+ (E. coli ATCC25922 [2]): 8 µM
MIC, Control (enzymatic stability) (E. coli ATCC25922 [2]): 4 µM
MIC, Control (salt stability) (E. coli ATCC25922 [2]): 4 µM
MIC, Control (thermal stability) (E. coli ATCC25922 [2]): 4 µM
MIC after Trypsin (E. coli ATCC25922 [2]; E. coli ATCC25922, 1 h, 37 °C): 128 µM
MIC (S. aureus ATCC 25923): 32 µM
MIC [3]: 32 µM
MIC [4]: 128 µM
MIC [5]: 64 µM
MIC (E. coli ATCC 25922): 4 µM
MIC [6]: 64 µM
MIC (S. aureus ATCC 29213; ATCC 29213, 18 h): 32 µM

FWRRWQWRRWF-NH2 [FW-WF]
MIC (E. coli UB 1005): 16 µM
MIC [1]: 8 µM
MIC after Papain (E. coli ATCC25922 [2]; ATCC25922, 1 h): 4 µM
MIC after Protease K (E. coli ATCC25922 [2]; ATCC25922, 1 h): 16 µM
MIC following heating at 100 °C (E. coli ATCC25922 [2]; ATCC25922, 1 h): 8 µM
MIC in the presence of Ca2+ (E. coli ATCC25922 [2]): 8 µM
MIC in the presence of Fe3+ (E. coli ATCC25922 [2]): 4 µM
MIC in the presence of K+ (E. coli ATCC25922 [2]): 4 µM
MIC in the presence of Mg2+ (E. coli ATCC25922 [2]): 4 µM
MIC in the presence of NH4+ (E. coli ATCC25922 [2]): 2 µM
MIC in the presence of Na+ (E. coli ATCC25922 [2]): 8 µM
MIC in the presence of Zn2+ (E. coli ATCC25922 [2]): 4 µM
MIC, Control (enzymatic stability) (E. coli ATCC25922 [2]): 4 µM
MIC, Control (salt stability) (E. coli ATCC25922 [2]): 4 µM
MIC, Control (thermal stability) (E. coli ATCC25922 [2]): 4 µM
MIC after Pepsin (E. coli ATCC25922 [2]; E. coli ATCC25922, peptide treated with 1 mg/mL pepsin, 1 h, 37 °C): >128 µM
MIC after Trypsin (E. coli ATCC25922 [2]; E. coli ATCC25922, 1 h, 37 °C): >128 µM
MIC (S. aureus ATCC 25923): 16 µM
MIC [3]: 128 µM
MIC [4]: >128 µM
GM (geometric mean of MIC values from all microbial strains) [7]: 78.67 µM
MIC [5]: 16 µM
MIC (E. coli ATCC 25922): 4 µM
survival rates of the cells (no PI signal) (E. coli ATCC25922 [8]; 1/2× MIC): 82.5%
survival rates of the cells (no PI signal) (E. coli ATCC25922 [8]; 1× MIC): 58.7%
MIC [6]: 8 µM
MIC (S. aureus ATCC 29213; S. aureus ATCC 29213, MHB, 37 °C, 18 h, peptides 0-256 μM, triplicate samples): >128 µM
